{"source": "patent US9121067B2", "about": "“Predictive marker for EGFR inhibitor treatment” (Hoffmann-La Roche Inc., priority 2007, dated 2015)", "key": {"[1]": {"details": "patients with cancer receiving 150 mg/day; 500 ng/ml is the average plasma concentration targeted for clinical efficacy; cited from earlier work"}, "[2]": {"tested_on": "patients with advanced NSCLC following failure of at least one prior chemotherapy regimen", "assay": "open-label Phase II predictive marker study, response assessment by RECIST", "assay_type": "in vivo, human", "protocol": "Based on the experience from the BR.21 study, benefiting population was defined as either having objective response, or disease stabilization for 12 weeks. Clinical and microarray datasets were analyzed according to a pre-defined statistical plan.\nThis was an open-label, predictive marker identification Phase II study. The study was conducted in approximately 26 sites in about 12 countries. 264 patients with advanced NSCLC following failure of at least one prior chemotherapy regimen were enrolled over a 12 month period. […] Dose reductions were permitted based on tolerability to drug therapy. Clinical and laboratory parameters were assessed to evaluate disease control and toxicity. Treatment continued until disease progression, unacceptable toxicity or death. The study design is depicted in FIG. 1.\nThe RECIST (Uni-dimensional Tumour Measurement) criteria were used to evaluate response.\nTo be assigned a status of CR or PR, changes in tumour measurements must be confirmed by repeated assessments at least 4 weeks apart at any time during the treatment period.\nIn the case of SD, follow-up measurements must have met the SD criteria at least once after study entry at a minimum interval of 6 weeks.\nIn the case of maintained SD, follow-up measurements must have met the SD criteria at least once after study entry with maintenance duration of at least 12 weeks."}, "[3]": {"tested_on": "NSCLC patients for whom standard therapy for advanced disease has failed", "details": "single agent versus placebo; cited from earlier work"}, "[4]": {"details": "75 patients with qRT-PCR results"}, "[5]": {"details": "n = 102, benefit = objective response or disease stabilization for >=12 weeks"}, "[6]": {"details": "patients included in microarray analysis n = 102, oral 150 mg/day"}}, "data": [{"smiles": "C#Cc1cccc(Nc2ncnc3cc(OCCOC)c(OCCOC)cc23)c1", "note": "[Tarceva, erlotinib]", "values": [{"measurement": "drug levels in plasma", "setting": "[1]", "result": "> 500", "unit": "ng/mL"}, {"measurement": "patients with PD", "setting": "[2]; [4]", "result": 52, "unit": "%"}, {"measurement": "patients with SD", "setting": "[2]; [4]", "result": 31, "unit": "%"}, {"measurement": "patients with partial response (PR)", "setting": "[2]; [4]", "result": 5, "unit": "%"}, {"measurement": "Clinical Benefit NO, n (%)", "setting": "[2]; [5]", "result": "81 (79.4%)"}, {"measurement": "Clinical Benefit YES, n (%)", "setting": "[2]; [5]", "result": "21 (20.6%)"}, {"measurement": "Best Response PD, n (%)", "setting": "[2]; [6]", "result": "49 (48.0%)"}, {"measurement": "Best Response PR, n (%)", "setting": "[2]; [6]", "result": "6 (5.9%)"}, {"measurement": "Best Response SD, n (%)", "setting": "[2]; [6]", "result": "31 (30.4%)"}, {"measurement": "survival", "setting": "[3]", "result": "significantly prolongs and improves the survival"}]}]}
